Results published in patent US20130189246A1, “TREATMENT OF OPHTHALMIC CONDITIONS WITH FLUORENONE DERIVATIVES” (The Trustees of Columbia University in the City of New York, priority 2009, published 2013).

How the values were obtained:
[1] = system: glial cell; details: central nervous system; reported; cited from earlier work
[2] = system: bovine RPE-choroid complex; experiment: Water transport across ex vivo bovine RPE-choroid complex in Ussing-type chamber; type: cell-based
Protocol: The effect of DPOFA was examined in an ex vivo bovine RPE-choroid complex model.
Ringer's solution contained 120 mM NaCl, 5 mM KCl, 23 mM NaHCO3, 1 mM MgCl2, 1.8 mM CaCl2, 2.0 mM taurine, and 10 mM glucose at pH 7.4. The osmolariy of the solution was 295±5 mOsM. The solution was placed in the cell culture incubator set at 37° C. with 5% CO2. The solution was kept in the incubator for at least 2 says before use. Glutathione at final concentration of 1 mM was added to solutions minutes before the use in water transport experiments.
To prepare 5.5 ml of the 108 mM DPOFA stock solution, 220 mg of DPOFA was weighted. Four milliliters of water was added to the drug followed by addition of 104 microliters of 5M NaCl solution. Small magnetic stirring bar was placed to the drug suspension followed by immersion of the pH electrode. Slow addition of 1N NaOH solution began with careful pH monitoring. NaOH was added until pH reached the 7.2-7.4 range at which point the drug was completely dissolved. pH electrode and magnetic stirring bar were removed, and the volume was adjusted to 5.5 ml. The stock was aliquoted and stored at −20° C. Working DPOFA dilutions were made in Ringer's solution or in PBS.
An Ussing-type chamber was used to assess water transport across tissues preparations. Three hours before the experiment two Ussing-like chambers were assembled and filled with phosphate buffered saline. The cambers were placed on the thermo-jacketed stand to pre-warm the chambers to the 37° C.
Bovine eyes were obtained from the local abattoir and placed to the cold Ringer's solution containing 120 mM NaCl, 5 mM KCl, 23 mM NaHCO3, 1 mM MgCl2, 1.8 mM CaCl2, 2.0 mM taurine, and 10 mM glucose pH 7.4. Eyes were transferred to the lab within 2-3 hours after enucleation and rinsed repeatedly in Ringer's solution. Excessive muscle and connective tissue were trimmed at room temperature. The enucleated eye was dissected at pars plana, and the anterior portion was discarded along with the vitreous. If sensory retina detached during the removal of vitreous, the eye was considered unusable and was discarded. After the removal of vitreous, the posterior portion of the eye with the attached neuroretina was visually examined to locate the area not containing large blood vessels in the sclera. Using a size 13 brass cork bore, the selected area was punched through using a hammer.
The resulting tissue “button” was placed in a Petri dish containing Ringer's solution. The neuroretina was carefully peeled off and discarded. The flat circular sheet of the RPE-choroid tissue was carefully removed with forceps, placed on the flat spoon and transported to the Petri dish where the “basal” round window of the Ussing-type chamber (containing metal mesh) was placed and covered with Ringer's solution. The choroid-RPE circular sheet was placed on the metal mesh of the“basal” window with choroid side down. The RPE side of the RPE-choroid sheet was covered with the nylon mesh shown, followed by clipping with the “apical” portion of the Ussing-type chamber window.
The pre-warmed Ussing-like chambers were removed from the thermo-jacketed stand, freed from the PBS solution, and disassembled. […]
Pre-warmed Ringer's solution was added first to the apical side and then to the basal side of the chamber. The temperature within the chambers was checked and if it reached 35° C., the electrical resistance was measured using the modified electrode and the DVC-1000 Voltage/Current Clamp instrument (WPI, Inc.). […]

With `CCC[C@]12CCC(=O)C=C1c1c(cc(OCC(=O)O)c(Cl)c1Cl)C2` [DPOFA, [(R)-(+)-(5,6-dichloro 2,3,9,9a-tetrahydro 3-oxo-9a-propyl-1H-fluoren-7-yl)oxy]acetic acid] as the compound, how does the “inhibition of glial cell swelling and reactive gliosis” value [1] read?
Its value is “effective inhibitor of glial cell swelling and reactive gliosis”.

What about the “stimulation of water transport across the bovine RPE-choroid complex” value ([2]; ex vivo, apical to basal side, overall result) of the same compound?
The value was “stimulated water transport”.

What about the “water transport at 6 μM compared with the higher concentrations” value ([2]; first experiment, FIG. 1, 6 μM vs 20 μM and 60 μM) of the same compound?
The value was “more significant transport of water than 20 μM and 60 μM”.

What about the “transport of water from apical to basal side (upward shift of basal capillary meniscus)” value ([2]; first experiment, FIG. 1, 6 μM, 20 μM, 60 μM DPOFA) of the same compound?
Its value is “stimulated significant increase in transport of water”.

And the “movement of water from apical to basal side” value ([2]; second experiment, FIG. 2, 6 μM, 20 μM, 60 μM DPOFA)?
Its value is “increased the movement of water”.

And the “concentration giving the strongest stimulation of water transport” value ([2]; second experiment, FIG. 2, 6, 20, 60 μM tested)?
The value was 6 µM.
